“Also recorded” adds a separate entry of the source. Read-outs that look alike come from different tables or passages of the source.
Key:
asthmatic mice [1] = assay: Airway resistance (Raw) response to methacholine in murine model of asthma (forced oscillation); type: in vivo, Balb/cJ mice
Experimental: Balb/cJ mice aged 6 weeks (Jackson Animal Laboratory, Bar Harbor, Me.) were housed under specific pathogen-free conditions and fed a chicken ovalbumin-free diet. The Animal Research Ethics Boards of both the University of Houston and the Baylor College of Medicine approved all experiments reported here. […] Mice were sensitized with subcutaneous injection of 25 μg of ovalbumin adsorbed to aluminum hydroxide on protocol days 2, 9, and 16. Subsequently, mice were given 50 μL of saline solution containing 25 μg of ovalbumin intranasally, on a daily basis, from protocol days 23 through 27. A group of ovalbumin-sensitized saline-challenged mice serves as controls for systemic sensitization and respiratory challenges with ovalbumin. Prior to intranasal administrations, mice were sedated with halothane vapor.
To examine the effects of duration of β-adrenergic ligand therapy on the phenotype of the murine model of asthma, the experimental drugs were administered either acutely or chronically to different groups of asthmatic mice.
Asthmatic mice on acute therapy were given a single intravenous bolus infusion of either β-adrenergic drug or normal saline on protocol day 28, 15 minutes before airway responsiveness to methacholine was determined. […] […] […] These concentrations were chosen based on those producing therapeutic effects in mice in previously published studies. The non-asthmatic mice were fed normal chow.
On protocol day 28, mice were anesthetized, tracheotomized, and connected to a computer-controlled small animal ventilator (Flexivent, Scientific Respiratory Equipment, Inc., Montreal, Canada). Airway resistance (Raw) was measured using the forced oscillation technique. The cellular composition of bronchoalveolar lavage fluid (BALF) was also determined.
To induce airway constriction, a solution containing 150 μg/mL of acetyl-α-methylcholine chloride (methacholine) (Sigma Chemical, St. Louis, Mo.) was infused intravenously at constant rates using a syringe infusion pump (Raze Scientific Instruments, Stanford, Conn.). […] Each methacholine dose was administered for 3 to 5 minutes, during which data were sampled at 1-minute intervals and then averaged.
The complex input impedance of the respiratory system was computed and the value of the real part of respiratory system impedance at 19.75 Hz was taken to reflect the magnitude of airway resistance (Raw). To examine the degree of airway responsiveness of each animal, the values for Raw as a function of methacholine doses were plotted. The largest value for Raw achieved in response to methacholine stimulation was referred to as Rawpeak. For mice that achieved a plateau in the methacholine dose-Raw response curve, the ED50 was calculated by linear interpolation using the GraphPad Prism4 (GraphPad Software, Inc.). […] The Bonferroni test was used to examine the statistical differences between experimental groups. The effects of acute drug treatments on baseline respiratory system mechanics were assessed using a two-tailed paired t-test. A value of P<0.05 was considered significant.
For these experiments, salbutamol was used for chronic administration at 0.5 mg/kg/day with a minipump and for acute administration at 0.15 mg/kg by i.v. bolus 15 minutes prior to challenge. Alprenolol was used at a high dose of 7200 ppm in chow or at a low dose of 720 ppm in chow. Carvedilol was used at a high dose of 2400 ppm in chow or at a low dose of 720 ppm in chow.

patients with CHF = details: cited from earlier work
β2-adrenergic receptor [2] = type: binding, mice; details: 2 days of administration
Experimental: (§1) β2-adrenergic receptor numbers were measured in asthmatic mice as follows. […] Mice were sacrificed and lung membranes were isolated as follows. Frozen lung tissue was homogenized in an ice-cold buffer containing 0.32 M sucrose and 25 mM Tris (pH 7.4) using a polytron (Pro 200, Pro Scientific, Inc.). The homogenate was centrifuged at 1000×g for 10 min at 4° C. The resulting supernatant was centrifuged at 40,000×g for 20 min at 4° C. The pellet was suspended in an ice-cold 25 mM Tris-HCl buffer (pH 7.4) and centrifuged at 40,000×g for 20 min at 4° C. The final pellet was suspended in 200 μL of 25 mM Tris-HCl (pH 7.4); membrane protein concentration was determined by BCA protein assay kit. […] The incubation was done at 37° C. for 2 h and terminated by rapid vacuum filtration through glass fiber filters. The filters were washed three times with 250 μL of cold wash buffer (25 mM Tris-HCl, pH 7.4) and the radioactivity determined in a counter. […] Receptor densities are expressed as femtomoles of sites per milligram of protein. Bmax is determined by nonlinear regression of the saturation binding curves.

β2-adrenergic receptor [3] = molecular target: β2-adrenergic receptor (Mus musculus, UniProt P18762); type: binding, mice
Experimental: as §1

asthmatic mice [4] = assay: BALF cell number and type (Example 11); type: in vivo; details: vs nontreated asthmatic mice
Description: The same mice as described in Example 1 underwent bronchoalveolar lavage (BAL) to determine the total number and type of immune system cells in the lung. BAL Fluid (BALF) was irrigated and collected from the lungs of mice as previously described (Evans K L, Bond R A, Corry […]. Frequency dependence of respiratory system mechanics during induced constriction in a murine model of asthma. J Appl Physiol. 2003 January;94(1):245-52). […] The number of neutrophils was increased in nontreated asthmatic mice compared to mice that served as controls for chronic beta-blocker treatments. In comparison to their notable effects on airway responsiveness, the β-AR ligands tested had very little effect on BALF cellularity. […] FIG. 12 has 3 panels of cell number and type of cells from the bronchoalveolar lavage fluid of asthmatic mice treated acutely or chronically with beta adrenergic ligands. Cells were identified as eosinophils (black bars), macrophages (hatched bars), neutrophils (grey bars), and lymphocytes (white bars) by standard morphologic criteria. At least 200 cells were counted per cytospin preparation, and the absolute number of each cell type was calculated based on the volume of fluid recovered from the lavage. […] Data are expressed as mean ±SEM and are representative of 6-25 animals per group. #P<0.05 compared to NTX, *P<0.05 compared to control (ANOVA).

asthmatic mice [5] = assay: Airway hyperresponsiveness, combination of carvedilol and salbutamol vs carvedilol monotherapy; type: in vivo, Balb/cJ mice; details: 28 days treatment; highest dose of methacholine
Experimental: Mice (Balb/cJ) aged 6 weeks were housed under specific pathogen-free conditions and fed a chicken ovalbumin-free diet. Mice were systemically sensitized with ovalbumin adsorbed to aluminum hydroxide. Mice were treated as follows: CAR/SAL 28D=for 28 days mice (n=6-12) were administered carvedilol (2400 ppm in animal chow) and salbutamol (subcutaneous delivery of 0.5 mg/kg/day in an Alzet #2400 osmotic minipump); NTX S/C=mice (n=6-12) no drug treatment for 28 days; CTRL=mice (n=6-12) no drug treatment for 28 days, not subsequently challenged; CARHD 28D=for 28 days mice (n=6-12) were administered carvedilol only (2400 ppm in animal chow); CARHD 28D SAL AC=for 28 days mice (n=6-12) were administered carvedilol (2400 ppm in animal chow) and 15 minutes prior to measuring airway hyperresponsiveness, salbutamol was administered at a dose of […].
To measure airway hyperresponsiveness after 28 days, all mice except the CTRL (control) mice were challenged with ovalbumin and then all mice were anesthetized, tracheotomized, and connected to a Flexivent small animal ventilator to measure airway resistance (Raw) by the forced oscillation technique. To induce airway constriction, a solution containing 150 μg/mL of methacholine was infused using a syringe infusion pump. The methacholine infusion was started at 0.008 mL/min and its rate was doubled stepwise up to a maximum […]. […]

[6] = system: tracheas from asthmatic mice; details: chronic treatment of asthmatic mice, excised tracheas; cited from earlier work

Sequence of β2-adrenergic receptor (Mus musculus, UniProt P18762) (P18762 whole entry): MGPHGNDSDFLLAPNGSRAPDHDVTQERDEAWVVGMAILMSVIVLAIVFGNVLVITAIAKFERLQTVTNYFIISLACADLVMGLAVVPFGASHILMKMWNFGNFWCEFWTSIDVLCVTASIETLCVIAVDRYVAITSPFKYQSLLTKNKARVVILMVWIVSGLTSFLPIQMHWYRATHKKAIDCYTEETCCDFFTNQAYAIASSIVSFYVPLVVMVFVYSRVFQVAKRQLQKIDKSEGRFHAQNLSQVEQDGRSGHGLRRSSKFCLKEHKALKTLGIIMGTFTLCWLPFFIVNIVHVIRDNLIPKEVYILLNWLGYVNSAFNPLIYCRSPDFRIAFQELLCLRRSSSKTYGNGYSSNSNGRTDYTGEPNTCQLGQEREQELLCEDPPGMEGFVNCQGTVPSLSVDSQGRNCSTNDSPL

COc1ccccc1OCCNCC(O)COc1cccc2[nH]c3ccccc3c12 (stereo not shown) [carvedilol]
Decreased Raw (asthmatic mice [1]; 15 minutes of administration): no | Decreased Raw (asthmatic mice [1]; 2 days of administration): no | Decreased Raw (asthmatic mice [1]; 28 days of administration): yes | airway responsiveness to methacholine provocation (Raw) (asthmatic mice [1]; asthmatic mice, acute: single intravenous bolus 15 minutes before methacholine): enhanced the airway responsiveness | sensitivity of the responsiveness to methacholine (asthmatic mice [1]; asthmatic mice, chronic administration): shifts the sensitivity of the responsiveness to methacholine to lower concentrations | airway responsiveness to methacholine provocation (Raw) (asthmatic mice [1]; asthmatic mice, chronic administration for 28 days): does reduce airway hyperresponsiveness; also recorded: reduced the responsiveness of asthmatic mice to methacholine provocation | protection from airway hyperresponsiveness (asthmatic mice [1]; chronic administration, low and high doses in chow (FIGS. 8D-8G)): providing protection from airway hyperresponsiveness | clinical outcome in congestive heart failure (patients with CHF): significant mortality reduction | Increased β2AR density (β2-adrenergic receptor [2]): no | Bmax (β2-adrenergic receptor [3]; 15 Minutes drug treatment, lung membranes of asthmatic mice, mean±SEM): 86.3 ± 19.42 femtomoles of sites per milligram of protein | βmax (β2-adrenergic receptor [3]; 28 Days drug treatment, lung membranes of asthmatic mice, mean±SEM): 904.1 ± 43.46 femtomoles of sites per milligram of protein | Increased β2AR density (β2-adrenergic receptor [3]; 15 minutes of administration): no | Increased β2AR density (β2-adrenergic receptor [3]; 28 days of administration): showed an increase in receptor density at 28 days | Increased β2AR density (β2-adrenergic receptor [3]; 28 days of administration, listed as Carvedilol): yes | increase of the level of β2-adrenergic receptors over the non-treated mice (β2-adrenergic receptor [3]; chronic administration): over 10 fold | BALF cellularity (asthmatic mice [4]; acute treatment (15 minutes)): had no effects on BALF cellularity | BALF cellularity (asthmatic mice [4]; chronic treatment (28 days)): had no effects on BALF cellularity | bronchoconstriction / airway hyperresponsiveness (Raw) (asthmatic mice [5]): higher bronchoconstriction than these treatments but less than the non-drug treated sensitized and challenged (NTX S/C) mice | effectiveness on tracheal contraction in response to methacholine (rank) [6]: followed by carvedilol

Source: patent US7528175B2, “Method of treating airway diseases with beta-adrenergic inverse agonists” (Inverseon, Inc., priority 2005, dated 2009)
